Patent US9096630B2, “Amphiphilic compositions and methods for preparing and using same” (Yale University, priority 2009, dated 2015)
Like-named read-outs stand apart in the source and are kept apart here.

Key:
[1] = Critical micelle concentration and surface tension measurement (tensiometer, Pt plate); type: physicochemical; details: for CMC / γmin: room temperature; for CMC: DI water; for γmin: DI water (calibrated to 72.7±0.2 mN/m); for behavior in terms of CMC compared with Compound 1 / behavior in terms of interfacial tension (γ) reduction compared with Compound 1: photoisomers of Compound 1
Procedure: To characterize the behavior of the compounds of this invention as surfactants, surface tension can be plotted as a function of concentration and critical micelle concentrations (CMCs) of these surfactants can be calculated. In addition, the hydrophobic-lipophilic balance (HLB) of a surfactant can be calculated according to Griffin's Method. See e.g., Pasquali, R. C.; Taurozzi, M. P.; Bregni, C. Int. J. Pharm.
The CMC for compounds of the invention is determined using known methods in the art.
See, e.g., Pasquali, R. C.; Taurozzi, M. P.; Bregni, C. Int. J. Pharm. […] 14.

[2] = Ross-Miles foam test (ASTM D1173); type: physicochemical; details: for foam enhancing and stabilizing capability compared with Compound 1: photoisomers of Compound 1
[3] = O-alkylglucoside reference, see Rybinski and Hill 1998; cited from earlier work

Compound `CCCCCCCCCCC/C=C/C(=O)C[C@@H]1O[C@H](CO)[C@@H](O)[C@H](O)[C@H]1O` [Compound 1, (E)-1-((2S,3R,4R,5S,6R)-3,4,5-trihydroxy-6-(hydroxymethyl)tetrahydro-2H-pyran-2-yl)pentadec-3-en-2-one] has a CMC [1] of 0.1 mM and a γmin [1] of 28 mN/m.

`CCCC1CC(=O)C([C@@H]2O[C@H](CO)[C@@H](O)[C@H](O)[C@H]2O)=CC1CC` (stereo partly drawn) [Compound 2, 4-ethyl-5-propyl-2-((2S,3R,4R,5S,6R)-3,4,5-trihydroxy-6-(hydroxymethyl)tetrahydro-2H-pyran-2-yl)cyclohex-2-enone] gave a CMC [1] of 52.2 mM and a γmin [1] of 30 mN/m.

With `CCCCCC1CC(=O)C([C@@H]2O[C@H](CO)[C@@H](O)[C@H](O)[C@H]2O)=CC1CCCC` (stereo partly drawn) [Compound 3, 4-butyl-5-pentyl-2-((2S,3R,4R,5S,6R)-3,4,5-trihydroxy-6-(hydroxymethyl)tetrahydro-2H-pyran-2-yl)cyclohex-2-enone] the “foaming properties when combined with SDS” value ([2]; combined with SDS as a 20% solution, compared with SDS alone) was “exceeded that of SDS alone”, the “foam height over 5 minutes when combined with SDS” value ([2]; combined with SDS as a 20% solution, over 5 minutes) was “remained unchanged” and the “excess foam after 5 minutes” value ([2]; surfactant alone, after 5 minutes, FIG. 2) was “virtually no excess foam”. The “reduction in Interfacial Tension (IFT)” value ([1]; comparison of CMC curves between series, FIG. 1) was “greatest reduction in Interfacial Tension (IFT)”, the “estimated CMC” value ([1]; estimated from point of inflection of CMC curve, FIG. 1) was “very low” and the CMC [1] was 0.17 mM. For the same compound, the γmin [1] was 22 mN/m.

Compound `CCCCC/C=C/C(=O)C[C@@H]1O[C@H](CO)[C@@H](O)[C@H](O)[C@H]1O` [Compound 46, (E)-1-((2S,3R,4R,5S,6R)-3,4,5-trihydroxy-6-(hydroxy-methyl)tetrahydro-2H-pyran-2-yl)non-3-en-2-one] has a CMC [1] of 3.9 mM and a γmin [1] of 24 mN/m.

In the case of `CCCCCCCCCC/C=C/CC(=O)C[C@@H]1OC(CO)[C@@H](O)[C@H](O)C1O` (some centres unmarked) [Compound 47], the “foam enhancing and stabilizing capability compared with Compound 1” value [2] is reported as “substanitally the same behavior”, the “behavior in terms of CMC compared with Compound 1” value [1] is reported as “substanitally the same behavior” and the “behavior in terms of interfacial tension (γ) reduction compared with Compound 1” value [1] is reported as “substanitally the same behavior”.

For `CCCCCCCCCC/C=C\CC(=O)C[C@@H]1OC(CO)[C@@H](O)[C@H](O)C1O` (some centres unmarked) [Compound 48], the “foam enhancing and stabilizing capability compared with Compound 1” value [2] was “substanitally the same behavior”, the “behavior in terms of CMC compared with Compound 1” value [1] was “substanitally the same behavior” and the “behavior in terms of interfacial tension (γ) reduction compared with Compound 1” value [1] was “substanitally the same behavior”.

For `CCCCCCCCCCCCO[C@@H]1O[C@H](CO)[C@@H](O)[C@H](O)[C@H]1O` [Dodecyl-AG], the CMC [3] is listed as 0.17 mM and the γmin [3] is listed as 24 mN/m.

In the case of `CCCCCCCCO[C@@H]1O[C@H](CO)[C@@H](O)[C@H](O)[C@H]1O` [Octyl-AG], the CMC [3] is listed as 18.0 mM and the γmin [3] is listed as 24 mN/m.
